From patent US20020137929A1, “1 - (3-heterocyclylphenyl) isothiourea, -isourea, -guanidine and -amidine herbicidal agents” (Intellectual Property Department, BASF Aktiengesellschaft, priority 1998, published 2002)

Legend:
GALAP (Galium) [1] = experiment: Preemergence herbicidal evaluation; format: in vivo, Galium aparine; conditions: rated 4-5 weeks after treatment
Excerpt: (§1) Results of herbicide evaluation are expressed on a rating scale (0-9). The scale is based upon a visual observation of plant stand, vigor, malformation, size, chlorosis and overall plant appearance as compared with a control.
(§2) The preemergence herbicidal activity of the test compounds of the present invention is exemplified by the following tests in which the seeds of a variety of monocotyledonous and dicotyledonous plants are separately mixed with potting soil and planted on top of approximately one inch of soil in separate pint cups. After planting, the cups are sprayed with the selected aqueous acetone solution containing test compound in sufficient quantity to provide the equivalent of about 0.0156 to 0.500 kg per hectare of test compound per cup. The treated cups are then placed on greenhouse benches, watered and cared for in accordance with conventional greenhouse procedures. From four to five weeks after treatment, the tests are terminated and each cup is examined and rated according to the rating system provided in Example 37.
(§3) The compounds evaluated are reported by compound number given in Example 37.

[2] = system: GLXMAW (Soybean, Williams); experiment: Postemergence herbicidal evaluation; format: in vivo, Glycine max, (L.) Merr. cv Williams; conditions: postemergence
Description: (§4) In the tests, seedling plants are grown in jiffy flats for about two weeks. The test compounds are dispersed in 50/50 acetone/water mixtures containing 0.5% TWEEN®20, a polyoxyethylene sorbitan monolaurate surfactant of Atlas Chemical Industries, in sufficient quantities to provide the equivalent of about 0.0156 kg to 0.500 kg per hectare of active compound when applied to the plants through a spray nozzle operating at 40 psi for a predetermined time. After spraying, the plants are placed on greenhouse benches and are cared for in accordance with conventional greenhouse procedures. From four to five weeks after treatment, the seedling plants are examined and rated according to the rating system set forth below. Where more than one test is involved for a given compound, the data are averaged.
(§5) Plant species employed in these evaluations are reported by header abbreviation, common name and scientific name.
as §1

SETVI (Foxtail, Green) = experiment: Postemergence herbicidal evaluation; format: in vivo, Setaria viridis; conditions: postemergence
How it was run: (§6)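 Two-week-old seedlings sprayed with compound in 50/50 acetone/water plus 0.5% TWEEN 20, at about 0.0156 to 0.500 kg/ha, nozzle at 40 psi. Kept in greenhouse; rated visually 4-5 weeks after treatment on a 0-9 scale versus control, repeat tests averaged.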

ECHCG (Barnyardgrass) = experiment: Postemergence herbicidal evaluation; format: in vivo, Echinochloa crus-galli; conditions: postemergence
Description: as §4, §5, §1

ZEAMX (Corn, Field) = experiment: Preemergence herbicidal evaluation; format: in vivo, Zea mays; conditions: rated 4-5 weeks after treatment
Excerpt: as §1, §2, §3

ORYSAT (Rice, Tebonnet) = experiment: Postemergence herbicidal evaluation; format: in vivo, Oryza sativa, (L.) Tebonnet; conditions: postemergence
How it was run: as §6

AMBEL (Ragweed, Common) = experiment: Postemergence herbicidal evaluation; format: in vivo, Ambrosia artemisifolia; conditions: postemergence
Description: as §4, §5, §1

[3] = system: SAGPY (Arrowhead (Pygmaea)); experiment: Preemergence weed control under flooded paddy conditions; format: in vivo, Sagittaria pygmaea; conditions: rated 3-4 weeks after treatment
Description: as §1
Preemergence herbicidal activity under flooded paddy conditions is determined as follows: plant seeds or propagating organs are planted in the top 0.5 cm of silt loam soil in 32 oz. plastic containers with a diameter of 10.5 cm and no drainage holes. Water is added to these containers and maintained at 1.5 to 3 cm above the soil surface for the duration of the experiment. The test compounds are applied as aqueous/acetone mixtures 50/50 v/v pipetted directly into the flood water to give the equivalent of about 0.0313 to 0.500 kg/ha of active ingredient. The treated containers are placed on greenhouse benches and cared for in accordance with conventional greenhouse procedures. Three to four weeks after treatment, the test is terminated and each container is examined and herbicidal effect rated according to the rating system provided in Example 37. The compounds evaluated are reported by compound number given in Example 37.
Plant species employed in this example are reported by header abbreviation, common name and scientific name.

GALAP (Galium) [4] = experiment: Postemergence herbicidal evaluation; format: in vivo, Galium aparine; conditions: postemergence
How it was run: as §6

CASOB (Sicklepod) [5] = experiment: Preemergence herbicidal evaluation; format: in vivo, Cassia obtusifolia; conditions: rated 4-5 weeks after treatment
Excerpt: as §1, §2, §3

CASOB (Sicklepod) [6] = experiment: Postemergence herbicidal evaluation; format: in vivo, Cassia obtusifolia; conditions: postemergence
How it was run: as §6

CYPIR (Rice Flatsedge) = experiment: Preemergence weed control under flooded paddy conditions; format: in vivo, Cyperus iria; conditions: rated 3-4 weeks after treatment
How it was run: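 Flooded-pot preemergence screen with silt loam and seeds in the upper 0.5 cm. Dose about 0.0313 to 0.500 kg/ha, delivered into flood water; visual 0-9 score after 3 to 4 weeks.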

[7] = system: CHEAL (Lambsquarters, Common); experiment: Postemergence herbicidal evaluation; format: in vivo, Chenopodium album; conditions: postemergence
Description: as §4, §5, §1

## CCOC(=O)CN1C(=O)C(Cc2ccccc2)SC1=Nc1cc(-n2c(=O)cc(C(F)(F)F)n(C)c2=O)c(F)cc1Cl (centres unmarked) [Compound 24, Ethyl 5-benzyl-2-{{2-chloro-5-[3,6-dihydro-3-methyl-2,6-dioxo-4-(trifluoromethyl)-1(2H)-pyrimidinyl]-4-fluorophenyl}imino}-4-oxo-3-thiazolidineacetate]
GALAP (Galium) [1]; rate 0.0625 kg/ha
  GALAP preemergence herbicidal rating: 0.0
GALAP (Galium) [1]; rate 0.1250 kg/ha
  GALAP preemergence herbicidal rating: 0.0
GALAP (Galium) [1]; rate 0.2500 kg/ha
  GALAP preemergence herbicidal rating: 4.0
[2]; rate 0.0158 kg/ha
  GLXMAW herbicidal rating: 4.0
[2]; rate 0.0315 kg/ha
  GLXMAW herbicidal rating: 5.0
[2]; rate 0.0630 kg/ha
  GLXMAW herbicidal rating: 5.5
SETVI (Foxtail, Green); rate 0.0158 kg/ha
  SETVI herbicidal rating: 0.0
SETVI (Foxtail, Green); rate 0.0315 kg/ha
  SETVI herbicidal rating: 0.0
SETVI (Foxtail, Green); rate 0.0630 kg/ha
  SETVI herbicidal rating: 0.0
ECHCG (Barnyardgrass); rate 0.0158 kg/ha
  ECHCG herbicidal rating: 0.0
ECHCG (Barnyardgrass); rate 0.0315 kg/ha
  ECHCG herbicidal rating: 0.0
ECHCG (Barnyardgrass); rate 0.0630 kg/ha
  ECHCG herbicidal rating: 0.0
ZEAMX (Corn, Field); rate 0.0625 kg/ha
  ZEAMX preemergence herbicidal rating: 0.0
ZEAMX (Corn, Field); rate 0.1250 kg/ha
  ZEAMX preemergence herbicidal rating: 0.0
ZEAMX (Corn, Field); rate 0.2500 kg/ha
  ZEAMX preemergence herbicidal rating: 1.0
ORYSAT (Rice, Tebonnet); rate 0.0158 kg/ha
  ORYSAT herbicidal rating: 2.5
ORYSAT (Rice, Tebonnet); rate 0.0315 kg/ha
  ORYSAT herbicidal rating: 3.0
ORYSAT (Rice, Tebonnet); rate 0.0630 kg/ha
  ORYSAT herbicidal rating: 3.0
AMBEL (Ragweed, Common); rate 0.0158 kg/ha
  AMBEL herbicidal rating: 2.0
AMBEL (Ragweed, Common); rate 0.0315 kg/ha
  AMBEL herbicidal rating: 3.0
AMBEL (Ragweed, Common); rate 0.0630 kg/ha
  AMBEL herbicidal rating: 9.0
[3]; 0.0313 kg/ha
  Herbicidal rating SAGPY: 0.0
[3]; 0.0625 kg/ha
  Herbicidal rating SAGPY: 0.0
[3]; 0.1250 kg/ha
  Herbicidal rating SAGPY: 0.0
[3]; 0.2500 kg/ha
  Herbicidal rating SAGPY: 0.0
GALAP (Galium) [4]; rate 0.0158 kg/ha
  GALAP herbicidal rating: 1.0
GALAP (Galium) [4]; rate 0.0315 kg/ha
  GALAP herbicidal rating: 4.0
GALAP (Galium) [4]; rate 0.0630 kg/ha
  GALAP herbicidal rating: 6.0
CASOB (Sicklepod) [5]; rate 0.0625 kg/ha
  CASOB preemergence herbicidal rating: 0.0
CASOB (Sicklepod) [5]; rate 0.1250 kg/ha
  CASOB preemergence herbicidal rating: 0.0
CASOB (Sicklepod) [5]; rate 0.2500 kg/ha
  CASOB preemergence herbicidal rating: 0.0
CASOB (Sicklepod) [6]; rate 0.0158 kg/ha
  CASOB herbicidal rating: 0.0
CASOB (Sicklepod) [6]; rate 0.0315 kg/ha
  CASOB herbicidal rating: 0.0
CASOB (Sicklepod) [6]; rate 0.0630 kg/ha
  CASOB herbicidal rating: 0.0
CYPIR (Rice Flatsedge); 0.0313 kg/ha
  Herbicidal rating CYPIR: 0.0
CYPIR (Rice Flatsedge); 0.0625 kg/ha
  Herbicidal rating CYPIR: 0.0
CYPIR (Rice Flatsedge); 0.1250 kg/ha
  Herbicidal rating CYPIR: 0.0
CYPIR (Rice Flatsedge); 0.2500 kg/ha
  Herbicidal rating CYPIR: 0.0
[7]; rate 0.0158 kg/ha
  CHEAL herbicidal rating: 2.0
[7]; rate 0.0315 kg/ha
  CHEAL herbicidal rating: 4.0
[7]; rate 0.0630 kg/ha
  CHEAL herbicidal rating: 9.0
